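Briefly, cells in 96-well plates were exposed to five compound concentrations for 48 h, and endpoints were estimated by linear interpolation. Abbreviation: GI50, concentration required for 50% inhibition of growth.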 The source made the active and inactive calls. No stated cut-off is given here; in the data, active = GI50 up to about 1.1 µM and inactive = higher.
Tests used:
Assay in all cases: NCI anticancer screen, dose series, 48 h
BT-549 = tested on: BT-549
CAKI-1 = tested on: CAKI-1
COLO 205 = tested on: COLO 205
EKVX = tested on: EKVX
HCC 2998 = tested on: HCC 2998
HL-60 = tested on: HL-60
HOP-92 = tested on: HOP-92
M14 = tested on: M14
MDA-MB-231 = tested on: MDA-MB-231
MOLT-4 = tested on: MOLT-4
OVCAR-4 = tested on: OVCAR-4
OVCAR-8 = tested on: OVCAR-8
RPMI-8226 = tested on: RPMI-8226
SK-MEL-5 = tested on: SK-MEL-5
SK-OV-3 = tested on: SK-OV-3
SN12C = tested on: SN12C
T47D = tested on: T47D
ACHN = tested on: ACHN
TK-10 = tested on: TK-10
NCI-H522 = tested on: NCI-H522

Measured: GI50

CC(C)CCCC(C)[C@H]1CC[C@H]2[C@@H]3CC[C@H]4C[C@@H](CCC=C(c5cc(Cl)c(O)c(C(=O)OC(C)C)c5)c5cc(Cl)c(O)c(C(=O)OC(C)C)c5)CC[C@]4(C)[C@H]3CC[C@]12C (stereo partly drawn)
inactive: BT-549 > 50 µM | CAKI-1 > 50 µM | COLO 205 > 50 µM | EKVX > 50 µM | HCC 2998 > 50 µM | HL-60 > 50 µM | HOP-92 > 50 µM | M14 > 50 µM | MDA-MB-231 > 50 µM | MOLT-4 > 50 µM | OVCAR-4 > 50 µM | OVCAR-8 > 50 µM | RPMI-8226 > 50 µM | SK-MEL-5 > 50 µM | SK-OV-3 > 50 µM | SN12C > 50 µM | T47D > 50 µM

CCOP(=O)(OCC)C(C#N)Cc1ccco1 (stereo not drawn)
inactive: ACHN > 10 µM | BT-549 > 10 µM | CAKI-1 > 10 µM | COLO 205 > 10 µM | EKVX > 10 µM | HCC 2998 > 10 µM | HL-60 > 10 µM | HOP-92 > 10 µM | M14 > 10 µM | MDA-MB-231 > 10 µM | MOLT-4 > 10 µM | OVCAR-4 > 10 µM | OVCAR-8 > 10 µM | RPMI-8226 > 10 µM | SK-MEL-5 > 10 µM | SK-OV-3 > 10 µM | SN12C > 10 µM | T47D > 10 µM | TK-10 > 10 µM

N#CCCC1(CCC#N)S(=O)(=O)OCCOS1(=O)=O
inactive: ACHN 32.4 µM | BT-549 6.04 µM | CAKI-1 40.6 µM | COLO 205 85.9 µM | EKVX > 100 µM | HL-60 23.3 µM | M14 56.8 µM | MOLT-4 24.7 µM | NCI-H522 27.1 µM | OVCAR-4 20.7 µM | OVCAR-8 89.1 µM | RPMI-8226 37 µM | SK-MEL-5 47.9 µM | SK-OV-3 51.3 µM | SN12C 29.6 µM | T47D 43.8 µM | TK-10 > 100 µM

CC(C)(C)NNc1c([N+](=O)[O-])cnn(-c2ccccc2)c1=O
inactive: ACHN 8.71 µM | BT-549 1.41 µM | CAKI-1 8.69 µM | COLO 205 4.63 µM | EKVX 9.14 µM | HCC 2998 7.14 µM | HL-60 1.34 µM | HOP-92 6.5 µM | M14 2.17 µM | MOLT-4 2.13 µM | NCI-H522 1.77 µM | OVCAR-4 3.59 µM | OVCAR-8 2.26 µM | RPMI-8226 3.96 µM | SK-MEL-5 4.51 µM | SK-OV-3 9.02 µM | SN12C 3.14 µM | T47D 2.29 µM | TK-10 22 µM

COc1cc(OC)cc(-n2c(N)c(C#N)c3ccc([N+](=O)[O-])cc3c2=O)c1
inactive: ACHN 28.3 µM | BT-549 31.2 µM | CAKI-1 30.8 µM | COLO 205 > 100 µM | HCC 2998 84.1 µM | HOP-92 19.1 µM | MDA-MB-231 37.5 µM | OVCAR-4 16.6 µM | OVCAR-8 18.7 µM | RPMI-8226 85.7 µM | SK-MEL-5 30.3 µM | SN12C 20.4 µM | T47D 33.7 µM | TK-10 34.2 µM

CC1=C(C(=O)NNC(=O)CC#N)CC(C(=O)NNC(=O)CC#N)=C(C)N1
inactive: ACHN > 100 µM | BT-549 > 100 µM | CAKI-1 > 100 µM | COLO 205 > 100 µM | EKVX > 100 µM | HCC 2998 > 100 µM | HL-60 82.6 µM | HOP-92 > 100 µM | M14 > 100 µM | MDA-MB-231 > 100 µM | MOLT-4 > 100 µM | OVCAR-4 > 100 µM | OVCAR-8 > 100 µM | SK-MEL-5 > 100 µM | SK-OV-3 > 100 µM | SN12C > 100 µM | T47D 93.3 µM | TK-10 > 100 µM

CN(C)CCNC(=O)c1cccc2c(NC(CS)C(=O)O)c3ccccc3[n+](C)c12 (stereo not drawn)
inactive: ACHN 35.5 µM | BT-549 35.6 µM | COLO 205 43.9 µM | EKVX 56.9 µM | HCC 2998 50 µM | M14 > 100 µM | MDA-MB-231 41.4 µM | MOLT-4 41.9 µM | OVCAR-4 > 100 µM | OVCAR-8 56.8 µM | RPMI-8226 > 100 µM | SK-MEL-5 47 µM | SK-OV-3 > 100 µM | SN12C 49.4 µM | T47D 64.9 µM | TK-10 > 100 µM

CCOP(=O)(OCC)C(F)(F)Cc1cnc(C)c2c1COC(C)(C)O2
inactive: ACHN > 10 µM | BT-549 > 10 µM | CAKI-1 > 10 µM | COLO 205 > 10 µM | EKVX > 10 µM | HCC 2998 > 10 µM | HL-60 > 10 µM | HOP-92 > 10 µM | M14 > 10 µM | MDA-MB-231 > 10 µM | MOLT-4 > 10 µM | OVCAR-4 > 10 µM | OVCAR-8 > 10 µM | RPMI-8226 > 10 µM | SK-MEL-5 > 10 µM | SK-OV-3 > 10 µM | SN12C > 10 µM | T47D > 10 µM | TK-10 > 10 µM

CC(Nc1cc(Cl)cc(Cl)c1)c1ccncc1 (stereo not drawn)
inactive: ACHN 22.4 µM | BT-549 22.4 µM | CAKI-1 17.2 µM | COLO 205 15.6 µM | EKVX 22.4 µM | HCC 2998 16.8 µM | M14 17.6 µM | MOLT-4 13.9 µM | NCI-H522 15.3 µM | OVCAR-4 38.9 µM | OVCAR-8 18.5 µM | RPMI-8226 18.2 µM | SK-MEL-5 15.4 µM | SN12C > 10 µM | T47D 7.85 µM | TK-10 41.8 µM

O=[N+]([O-])c1cc2ccc1OCc1cccc(n1)COc1ccc(cc1[N+](=O)[O-])/C=N\CCCCCCCC/N=C\2
inactive: ACHN > 100 µM | BT-549 > 100 µM | CAKI-1 > 100 µM | COLO 205 > 100 µM | EKVX > 100 µM | HCC 2998 > 100 µM | HOP-92 > 100 µM | M14 > 100 µM | MDA-MB-231 > 100 µM | MOLT-4 > 100 µM | NCI-H522 > 100 µM | OVCAR-4 > 100 µM | OVCAR-8 > 100 µM | RPMI-8226 > 100 µM | SK-MEL-5 > 100 µM | SN12C > 100 µM | TK-10 > 100 µM

COC1C(OC(N)=O)C(O)C(Oc2ccc3c(O)c(NC(=O)c4ccc(O)c(CC=C(C)C)c4)c(=O)oc3c2C)OC1(C)C (stereo not drawn)
inactive: ACHN > 100 µM | BT-549 > 100 µM | CAKI-1 > 100 µM | COLO 205 > 100 µM | EKVX > 100 µM | HCC 2998 47.5 µM | M14 > 100 µM | MDA-MB-231 > 100 µM | MOLT-4 48 µM | OVCAR-8 > 100 µM | RPMI-8226 28.4 µM | SK-MEL-5 > 100 µM | SK-OV-3 > 100 µM | SN12C > 100 µM | T47D > 100 µM | TK-10 > 10 µM
